Test results taken from patent publication US20050071891A1, “Repressible sterility of animals” (priority 1999, published 2005).
Several values for one entry are separate records, joined by “and”; a condition that tells them apart may be missing. Identical values can stand only once.

Columns and labels:
ZF4 cells = test: Tet-off system in zebrafish cell culture, EGFP reporter; format: cell-based; settings: doxycycline 0.2 μg/ml, 72 h, pTet-Off + pTRE-EGFP cells
Description: The applicant first tested the functionality of the Tet-off system in zebrafish cell cultures. The cell culture was established using ZF4 cells as previously described (Driever and Rangini, 1993). Cells were transfected with the DNAs using Effectene liposomes (Qiagen) according to the manufacturer's instructions. Cells were initially transfected with pTet-Off and placed under neomycin selection for 1 month. Neomycin-resistant cells were then transfected with pTRE-EGFP, and the selection plasmid pTK-Hyg, and placed under hygromycin selection for two weeks. EGFP expression was determined by examining and counting cells with obvious fluorescence and by examination of cell lysates using a fluorometer. Cells were grown in medium with or without doxycycline (0.2 μg/ml) for 72 h prior to assessment of gene expression, or were rinsed of doxycycline and assessed for reporter gene expression 72 h after removal of doxycycline.

P19-pSFM 7 cells [1] = test: Luciferase activity of pSFM 25 in P19 clones stably integrated with pSFM 7; format: cell-based, mouse; settings: doxycycline at 1 μg/ml, clone 46
Protocol: Stably integrated P19 clones were obtained by using BioRad Gene Pulser II electroporation system. 30 μg DNA electroporated into 10 million cells under following conditions 960 μF and 0.16 kV in a 0.4 cm cuvette (0.4 kV/cm). The next day normal media were replaced with appropriate selection media (300 μg/ml G418).
Selection of a P19 cell line stably integrated with a goosecoid-dependent TET-OFF transactivator P19 cells were electroporated with pSFM 7 (Goosecoid promoter-TET/OFF) linearised with ApaLI and selected for stable integration.
Table 20 showes the luciferase activities of pSFM 25 (TRE luciferase+) shown in counts per second (cps) of transiently transfected in P19-pSFM 7 cells.
Addition of doxycycline at 1 μg/ml reduced luciferase activity from pSFM 25 in this clone by 90 fold. This clone, containing stably integrated pSFM 7 was therefore designated P19-pSFM 7 and used for further testing.

P19-pSFM 7 cells [2] = test: Expression patterns of reporter constructs in P19-pSFM 7 cells; format: cell-based, mouse; settings: transfected into P19-pSFM 7 cells
Protocol: Fluorescent and transmitted light images were acquired using a CCD camera with a microscope. […] The luminescence assays were conducted by using a dark 96 well plate was done by Victor2 from Wallac or by Topcount NXT from Can berra Packard.
The first stage for testing blocker constructs is to set up an appropriate cell system to detect expression of reporter constructs. Initially, either pdsRED-N1 (CMV promoter RFP), pSFM 6 (CMV promoter goosecoid cDNA fused to RFP) or pSFM 24 (TRE EGFP) were transfected into P19-pSFM 7 cells to test the expression patterns of the EGFP, RFP and goosecoid-fused to RFP proteins (FIG. 37). […] In these cases, RFP expression fused to goosecid in the nucleus is expected to be inhibited in the presence of an appropriate blocker.

zBMP2 = test: Injection of zBMP2 antisense and double stranded DNA constructs into zebrafish embryos; format: in vivo; settings: 100 μg/ml, 1-4 cell stage embryos
Protocol: All the DNA preparations were appropriately linearized and gel purified (Qiaquick Gel Extraction Kit) before injection. Needles were made from borosilicate glass capillaries with filaments (GC100TF-15, Clark Electromedical instruments) using a P-80PC micropipette puller (Sutter Instrument Co.). The needle was back-filled with purified DNA diluted to 100 ng/μl in 1× injection buffer (10×; 50 mM Tris; 5 mM EDTA; 1M KCl, pH7.2) using a hand pulled pipette. Injections were carried out on a dissection microscope fitted with two, 3-dimensional Narshige MN-151 micromanipulators. Embryos were held in place during injection by a hydraulically (mineral oil) driven holding pipette. Injection of DNA solution was facilitated pneumatically using a 3-way foot operated plunge valve (Festo Engineering), connected between the injection needle holder and nitrogen tank. Injection was performed on one-cell stage embryos, unless specifically indicated otherwise. Injected embryos were incubated and reared as described above.
On confirming the ability of in vitro transcribed BMP2 antisense and double stranded transcripts to disrupt larval development, DNA constructs capable of expressing the antisense and double stranded transcripts in vivo were developed and tested. […]

Which results are given for `C[C@H]1c2cccc(O)c2C(=O)C2=C(O)[C@]3(O)C(=O)C(C(N)=O)=C(O)[C@@H](N(C)C)[C@@H]3[C@@H](O)[C@@H]21` [doxycycline, reference compound]?
EGFP gene expression relative to cells not exposed to doxycycline (ZF4 cells): approximately 3%; reduction of luciferase activity from pSFM 25 (P19-pSFM 7 cells [1]): 90 fold

For “pSFM 6: goosecoid cDNA fused to red fluorescent protein in pDSRed1-N1”, which “cellular location of reporter expression” value (P19-pSFM 7 cells [2]) is on record?
Its value is “detected in the nucleus”.

B1: pzBMP2-ds: zBMP2 promoter drives about 800 bp of zBMP2 cDNA designed to fold back as dsRNA (SEQ ID NO:13) (nucleic acid)
DNA: GAATTCATGAGGAACTTAGGAGACGACGGGAACGCAGACCGGCCACAGCGCTTCCTCCTCCGGAACTGACTGATCATGGTCGCCGTGGTCCGCGCTCTCACGGTGCTGTTGCTCGGTCAGGTGTTGCTGGGAGGTGCCGTTGGACTCATTCCCGAGATCGACCGACGGAAATACAGTGATTCGGGGAGACACACACCGGAGCGAACTGATACAAACTTCCTGAACGAGTTTGAGCTACGCTTGCTCAATATGTTCGGATTGAAGCGAAAACCCACCCCAAGCAAATCGGCAGTGGTCCCTCAGTACATGCTGGACTTGTATTATATGCACTCTGAAAACGATGACCCGAACATTCGGCGCCCGAGGAGCACTATGGGAAAACATGTAGAAAGGGCAGCCAGCAGAGCAAACACGATACGAAGTTTTCATCACGAAGAGGCTTTCGAGGCACTGTCCAGCCTGAAAGGAAAAACAACGCAGCAGTTTTTCTTCAACCTTACCTCCATTCCTGTCGACTGCCGATTTGCTTGGGGTGGGTTTTCGCTTCAATCCGAACATATTGAGCAAGCGTAGCTCAAACTCGTTCAGGAAGTTTGTATCAGTTCGCTCCGGTGTGTGTCTCCCCGAATCACTGTATTTCCGTCGGTCGATCTCGGGAATGAGTCCAACGGCACCTCCCAGCAACACCTGACCGAGCAACAGCACCGTGAGAGCGCGGACCACGGCGACCATGATCAGTCAGTTCCGGAGGAGGAAGCGCTGTGGCCGGTCTGCGTTCCCGTCGTCTCCTAAGTTCCTCATCTGCAGCAATTGGATATCAAGCTTATCGATGATGATCCAGACATGATAAGATACATTGATGAGTTTGGACAAACCNCANCTAGAATGCAGTGAAAAAAATGCTTTATTTGTGAAATTTGTGATGCTATTGCTTTATTTGTAACCATTATAAGCTGCAATAAACAAGTTAACNACAACAATTGCATTCATTTTATGTTTCAGGTTCAGNGGGAGGTGTGGGAGGTTTTTTAAAGCAAGTAAAACCTCTNCAAATGTGGTATGGCTGATTATGATCCTCTAGATCAGATCCACTAGTTCTAGAGCGGCCGCCACCGCGGTGGAGCTC
modifications: Blocker Molecule
For B1, which “Number Deformed” value (zBMP2) is on record?
The value was 21 and 22.

And the “mortality, percentage” value (zBMP2)?
Its value is 14.3% and 16.5%.
